Where a name gives a salt, the structure may show the parent alone.
Columns and labels:
CHIKV replicon = experiment: microbe, parasite or virus in culture; format: cell-based, Chikungunya virus (CHIKV)

| Compound | CHIKV replicon % left (CHIKV replicon) [%] | SFV replication % left (surviving fraction, remaining percentage of SFV replication) (SFV-Rluc) [%] |
| --- | --- | --- |
| Oc1cc(O)c2c(c1)O[C@H](c1ccc(O)c(O)c1)[C@H](O)[C@H]2c1c(O)cc(O)c2c1O[C@H](c1ccc(O)c(O)c1)[C@@H](O)C2 [Procyanidin B1] | 104.7 | 128.1 |
| CCOC(=O)c1ccc(N)cc1 [Benzocaine] | 85.4 | 43.4 |
| Oc1c(I)cc(Cl)c2cccnc12 [Clioquinol] | 32.7 | 71.9 |
| Cc1c(C)c2c(c(C)c1O)CCC(C)(C(=O)O)O2 (stereo not shown) | 101.5 | 76.9 |
| Cl.c1ccc(CC2=NCCN2)cc1 [Tolazoline, hydrochloride] | 102.1 | 76.0 |
| Cc1cc(=O)n(-c2ccccc2)n1C [Antipyrine] | 102.6 | 60.1 |
| CCCCNc1ccc(C(=O)OCCN(C)C)cc1 [Cainopan, p-Butylaminobenzoyldimethylaminoethanol] | 82.2 | 63.8 |
| CCCCCCCCOC(=O)c1cc(O)c(O)c(O)c1 [Octyl gallate] | 94.1 | 134.4 |
| CC(=O)OCC(=O)[C@@]1(O)CC[C@H]2[C@@H]3CCC4=CC(=O)CC[C@]4(C)[C@H]3[C@@H](O)C[C@@]21C [Hydrocortisone acetate] | 72.1 | 116.8 |
| C[C@@H]1O[C@@H](OC[C@H]2O[C@@H](Oc3c(-c4ccc(O)c(O)c4)oc4cc(O)cc(O)c4c3=O)[C@H](O)[C@@H](O)[C@@H]2O)[C@H](O)[C@H](O)[C@H]1O [Rutin] | 49.5 | 44.1 |
| COc1c2occc2c(OC)c2c(=O)cc(C)oc12 [Khellin] | 95.4 | 120.6 |
| CCCNc1ccc(C(=O)OCC(O)CN(C)C)cc1 (stereo not shown) [Cornecaine] | 80.5 | 77.3 |
| Cc1cccc(Nc2ccccc2C(=O)O)c1C [Mefenamic acid] | 99.4 | 103.5 |
| COc1cc(C=O)ccc1O [Vanillin] | 71.7 | 47.9 |
| O=C1Nc2ccc(Cl)cc2C(c2ccccc2Cl)=NC1O (stereo not shown) [Lorazepam] | 104.9 | 98.2 |
| COc1ccccc1-c1cc(=O)c2ccc3ccccc3c2o1 [2'-Methoxy-a-naphthoflavone] | 81.0 | 45.8 |
| CC(C)NCC(O)c1ccccc1Cl.Cl.O (stereo not shown) [Clorprenaline hydrochloride] | 102.2 | 63.7 |
| COc1cc(/C=C/C(=O)O)cc(OC)c1O [Sinapic acid] | 51.4 | 22.0 |
| Cc1cc(=O)oc2cc(O)c(O)cc12 [6,7-Dihydroxy-4-methylcoumarin] | 95.4 | 131.1 |

| Compound | CHIKV replicon % left (CHIKV replicon) [%] | SFV replication % left (surviving fraction, remaining percentage of SFV replication) (SFV-Rluc) [%] |
| --- | --- | --- |
| O=c1cc(-c2ccccc2)oc2ccccc12 [Flavone] | 39.4 | 52.2 |
| CC(C)OC(=O)c1cc(O)c(O)c(O)c1 [Isopropyl gallate] | 79.3 | 124.0 |
| O=c1c(O)c(-c2ccc(O)c(O)c2)oc2cc(O)c(O)c(O)c12 [Quercetagetin] | 85.2 | 90.2 |
| O=c1cc(C(F)(F)F)c2cc3c4c(c2o1)CCCN4CCC3 [Coumarin 153] | 96.1 | 52.6 |
| O=c1c(O)c(-c2cc(O)c(O)c(O)c2)oc2cc(O)cc(O)c12 [Myricetin] | 49.1 | 2.0 |
| NC(=O)N1c2ccccc2C=Cc2ccccc21 [Carbamazepine] | 100.2 | 57.2 |
| Cn1c(=O)c2c(ncn2CC(O)CO)n(C)c1=O (stereo not shown) [7-(2,3-Dihydroxypropyl)theophylline] | 54.3 | 100.1 |
| CN1C(=O)CN=C(c2ccccc2)c2cc(Cl)ccc21 [Diazepam] | 84.0 | 73.6 |
| Cc1cc(=O)oc2c3c4c(cc12)CCCN4CCC3 [Coumarin 102] | 65.4 | 34.6 |
| CC(C)(C)NCC(O)c1ccc(O)c(CO)c1 (stereo not shown) [Salbutamol] | 78.4 | 151.4 |
| O.O.O=c1c(O)c(-c2ccc(O)cc2O)oc2cc(O)cc(O)c12 [Morin dihydrate] | 102.6 | 82.9 |
| COc1ccc([C@@H]2CC(=O)c3c(O)cc(O[C@@H]4O[C@H](CO[C@@H]5O[C@@H](C)[C@H](O)[C@@H](O)[C@H]5O)[C@@H](O)[C@H](O)[C@H]4O)cc3O2)cc1O [Hesperidin] | 102.2 | 77.7 |
| CCCCOc1cc(C(=O)NCCN(CC)CC)c2ccccc2n1 [Dibucaine hydrochloride] | 100.5 | 77.8 |
| C#C[C@]1(O)CC[C@H]2[C@@H]3CCC4=CC(=O)CC[C@@H]4[C@H]3CC[C@@]21C [Norethindrone] | 97.1 | 107.8 |
| OCCOCCN1CCN(C(c2ccccc2)c2ccc(Cl)cc2)CC1 (stereo not shown) [Hydroxyzine hydrochloride] | 100.5 | 98.3 |
| O=C(OC[C@H]1OC(O)[C@@](O)(COC(=O)c2cc(O)c(O)c(O)c2)[C@@H]1O)c1cc(O)c(O)c(O)c1 (stereo partly shown) [Hamamelitannin] | 40.1 | 14.7 |
| Tannic acid | 82.0 | 41.8 |
| Cc1c(C(C)C)c(=O)n(-c2ccccc2)n1C [Propyphenazone] | 81.1 | 50.9 |
| COc1ccc(C(=O)Cc2c(CCN(C)C)cc3c(c2OC)OCO3)c(C(=O)O)c1OC [Narceine] | 70.7 | 118.3 |

| Compound | CHIKV replicon % left (CHIKV replicon) [%] | SFV replication % left (surviving fraction, remaining percentage of SFV replication) (SFV-Rluc) [%] |
| --- | --- | --- |
| Cc1nc(NS(=O)(=O)c2ccc(N)cc2)oc1C [Sulfamoxole] | 80.2 | 83.0 |
| C=CCOc1ccccc1OCC(O)CNC(C)C (stereo not shown) [Oxprenolol hydrochloride] | 84.3 | 92.4 |
| COc1cc(O)c2c(=O)c(O)c(-c3ccc(O)c(O)c3)oc2c1 [Rhamnetin] | 94.7 | 119.1 |
| CC(C)Cc1ccc(CC(=O)O)cc1 [Ibufenac] | 78.9 | 102.2 |
| CN(Cc1cc(Br)cc(Br)c1N)C1CCCCC1 [Bromhexine hydrochloride] | 82.8 | 64.8 |
| O=C(O)/C=C\C(=O)O.O=C(O)/C=C\C(=O)O.OCCN1CCN(CCCN2c3ccccc3Sc3ccc(C(F)(F)F)cc32)CC1 [Fluphenatzinemaleate] | 104.3 | 98.9 |
| NCC(O)c1ccc(O)cc1 (stereo not shown) [Octopamine hydrochloride] | 88.4 | 102.1 |
| CC(C)(C)NC[C@H](O)COc1cccc2c1CCCC2=O [I-Bunolol] | 105.4 | 59.6 |
| CC(C(=O)O)c1cccc(C(=O)O)c1 (stereo not shown) [2-(3-Carboxyphenyl)propionic acid] | 94.3 | 105.7 |
| O=C(c1ccccc1)c1cc2c(ccc3ccccc32)oc1=O [3-Benzoylbenzo(F)coumarin] | 68.0 | 39.9 |
| CC(=O)NS(=O)(=O)c1ccc(N)cc1 [Sulfacetamide] | 50.4 | 100.8 |
| O=C(O)c1cc(-c2ccccc2)nc2ccccc12 [Cinchophen] | 51.2 | 65.1 |
| CCOC(=O)c1ccc(O)cc1 [Ethyl 4-hydroxybenzoate] | 94.4 | 127.8 |
| C[C@](N)(Cc1ccc(O)c(O)c1)C(=O)O [L-Methyldopa] | 70.2 | 99.1 |
| Cc1nnc(NS(=O)(=O)c2ccc(N)cc2)s1 [Sulfamethizole] | 79.1 | 100.4 |
| CN(C)CCCN1c2ccccc2Sc2cccnc21.Cl [Prothipendyl hydrochloride] | 11.2 | 7.4 |
| COc1cc2ccc(=O)oc2c(O)c1O [Fraxetin] | 95.4 | 103.6 |
| CN1CCN=C(c2ccccc2)c2cc(Cl)ccc21 [Medazepam] | 101.7 | 87.5 |

From PMC3242765, “Inhibitors of Alphavirus Entry and Replication Identified with a Stable Chikungunya Replicon Cell Line and Virus-Based Assays” (PLoS ONE, 2011)
